Data published in patent US9918988B2, “Ammonium derivatives for the treatment of hepatitis C” (priority 2013, dated 2018).
Read-outs that look alike come from different tables or passages of the source.

System: HCV pseudoparticles (genotype 1a HCV E1 and E2 envelope, H77C isolate)
Assay: HCV pseudoparticle infection assay (genotype 1a, luciferase reporter, Huh7 cells)
Type: cell-based
Details: Hepatitis C virus, Huh-7, 48 h, read-out: EC50 (1a, nM), HCV genotype 1a pseudoparticles, Huh7 cells, luciferase 2 days after infection

SMILES	EC50 (class symbol) [nM]	EC50 (numeric value) [nM]
C[N+](C)(C)CCNC(=O)c1ccc(Nc2nc(NC3(c4ccc(Cl)cc4)CC3)nc(OCC(F)(F)F)n2)cc1 [Compound 1001, 2-(4-(4-(1-(4-chlorophenyl)cyclopropylamino)-6-(2,2,2-trifluoroethoxy)-1,3,5-triazin-2-ylamino)benzamido)-N,N,N-trimethylethanaminium]	0.01 to 10	
[2H]C([2H])(Oc1nc(Nc2ccc(C(=O)NCC[N+](C)(C)C)cc2)nc(NC2(c3ccc(Cl)cc3)CC2)n1)C(F)(F)F [Compound 1002, 2-(4-(4-(1-(4-chlorophenyl)cyclopropylamino)-6-(2,2,2-trifluoroethoxy-D2)-1,3,5-triazin-2-ylamino)benzamido)-N,N,N-trimethylethanaminium]	0.01 to 10	
C[N+](C)(C)CC(=O)NNC(=O)c1ccc(Nc2nc(NC3(c4ccc(Cl)cc4)CC3)nc(OCC(F)(F)F)n2)cc1 [Compound 1003, 2-(2-(4-(4-(1-(4-chlorophenyl)cyclopropylamino)-6-(2,2,2-trifluoroethoxy)-1,3,5-triazin-2-ylamino)benzoyl)hydrazinyl)-N,N,N-trimethyl-2-oxoethanaminium]	10 to 1000	64.1
C[N+](C)(C)CCCNC(=O)c1ccc(Nc2nc(NC3(c4ccc(Cl)cc4)CC3)nc(OCC(F)(F)F)n2)cc1 [Compound 1004, 3-(4-(4-(1-(4-chlorophenyl)cyclopropylamino)-6-(2,2,2-trifluoroethoxy)-1,3,5-triazin-2-ylamino)benzamido)-N,N,N-trimethylpropan-1-aminium]	0.01 to 10	
C[N+](C)(C)CCCC[C@H](NC(=O)c1ccc(Nc2nc(NC3(c4ccc(Cl)cc4)CC3)nc(OCC(F)(F)F)n2)cc1)C(=O)O [Compound 1005, (S)-5-carboxy-5-(4-(4-(1-(4-chlorophenyl)cyclopropylamino)-6-(2,2,2-trifluoroethoxy)-1,3,5-triazin-2-ylamino)benzamido)-N,N,N-trimethylpentan-1-aminium]	0.01 to 10	
CC(C)(CNC(=O)c1ccc(Nc2nc(NC3(c4ccc(Cl)cc4)CC3)nc(OCC(F)(F)F)n2)cc1)C[N+](C)(C)C [Compound 1006, 3-(4-(4-(1-(4-chlorophenyl)cyclopropylamino)-6-(2,2,2-trifluoroethoxy)-1,3,5-triazin-2-ylamino)benzamido)-N,N,N,2,2-pentamethylpropan-1-aminium]	0.01 to 10	0.115
C[N+](C)(C)CCNC(=O)c1ccc2cc1OCCCCCCCCOc1ccc(cc1)CNc1nc(nc(OCC(F)(F)F)n1)N2 [Compound 2001]	0.01 to 10	
C[N+](C)(C)CCNC(=O)c1ccc2cc1OCCCCCCOc1ccc(cc1)CNc1nc(nc(OCC(F)(F)F)n1)N2 [Compound 3001]	0.01 to 10	
C[N+](C)(C)CCCNC(=O)c1ccc2cc1OCCCCCCOc1ccc(cc1)CNc1nc(nc(OCC(F)(F)F)n1)N2 [Compound 3002]	10 to 1000	
CC(C)(CNC(=O)c1ccc2cc1OCCCCCCOc1ccc(cc1)CNc1nc(nc(OCC(F)(F)F)n1)N2)C[N+](C)(C)C [Compound 3003]	0.01 to 10	7.51
C[N+](C)(C)CCNC(=O)c1ccc2cc1OCCOCCOCCOc1ccc(cc1)CNc1nc(nc(OCC(F)(F)F)n1)N2 [Compound 4001]	0.01 to 10	
